In patent US10940188B2, “Compounds and methods for treatment and prevention of Flavivirus infection” (priority 2016, dated 2021):
pIC50: −log10 of the molar value.

Tests used:
[1] = system: ZIKV production from SNB-19 cells; assay: Infectious ZIKV production from SNB-19 cells, focus-forming unit assay on Vero cells; format: cell-based, Zika virus; details: PRVABC59-ZIKV, SNB-19 supernatants on Vero cells, ZIKV-ENV stain; read-out: IC50 against ZIKV infection in human glioblastoma cell culture
Method: FIGS. 2A-1, 2A-2, 2B-1, 2B-2, 2C-1, 2C-2, 2D-1, 2D-2, 2D-3, 2E-1, 2E-2, and 2F. […] Screening of select compounds for antiviral activity against ZIKV infection was carried out. Glioblastoma SNB-19 cells were treated with indicated compound at 10×AC50 (determined in the primary caspase screen) for 1 hour prior to inoculation with FSS-13025 (at MOI=1). Cells were harvested 24 hours post infection and analyzed by Western blot for ZIKV-NS1 or GAPDH (FIGS. 2A-1 and 2A-2). Titration of PHA-690509 on glioblastoma cells for anti-ZIKV activity. Three strains of virus (FSS-13025, PRVABC59, and MR766; MOI=1) were tested. Shown are sample western blot images (FIG. 2B-1) and ImageJ quantification (FIG. 2B-2). Values represent mean±s.d. (n=3; ***P<0.001; One-way ANOVA). Titration of Emricasan on SNB-19 cells for anti-ZIKV activity was conducted similarly (FIGS. 2C-1 and 2C-2). Values represent mean±s.d. […] Sample western blot (FIG. 2D-2) and ImageJ quantification (FIG. 2D-3) are shown for infection with the PRVABC59 strain (MOI=1). Results for additional strains are shown in FIGS. 6A-F. Values represent mean±s.d. […] The concentration of NS1 in the medium of infected SNB-19 cells collected 24 hours post-infection was quantified by a ZIKV-NS1 ELISA kit (FIGS. 2E-1 and 2E-2). […] Cell culture supernatant was collected 24 hours after infection, and infectious virions were quantified for focus-forming units (FFU) using Vero cells. […] Curves represent best fits for calculating IC50 values, and the insets report the calculated IC50 value for each compound.
FIGS. 18A, 18B, 18C-1, 18C-2, 18D, 18E, 18F, 18G-1, and 18G-2. […] 24 hours post infection, supernatants from SNB-19 cells were titrated onto naïve vero cells plated in a monolayer in 96-well plates for infectious focus-forming unit assay as previously described and focus forming units quantified. […] Immunofluorescence (IF) staining (FIG. 18C-1) and quantification (FIG. 18C-2) of ZIKV positive SNB-19 cells following infection with one of three ZIKV strains and treatment with emetine at 0.01, 0.1, or 1 μM. […]
FIG. 21. […] IC50's calculated using graphpad PRISM software. […]

[2] = system: hNPCs infected with ZIKV PRVABC59; assay: hNPC proliferation after ZIKV infection (EdU); format: cell-based, human; details: PHA-690509 1 μM, Seliciclib 5 μM
Method: (§1) FIGS. 17A-17C. Analysis of potential toxicity of CDKis on human astrocyte viability and hNPC proliferation. Human iPSC-derived astrocytes (BJ line) were treated with each indicated compound (cpd) for 25 hours prior to cell viability analysis as measured in relative luciferase units for ATP production. Values represent mean+s.d. (n=3 cultures; ***P<0.001; **P<0.01; One-way ANOVA for comparison with the DMSO treatment). RLU: relative luminescence units. hNPCs were treated with saline, PHA-690509 (PHA, 1 μM) or Seliciclib (5 μM), 1 hour prior to ZIKV PRVABC59 infection (MOI=0.08). At 72 hours post infection, EdU (10 μM) was added to hNPCs and cells were cultured for additional 4 hours prior to fixation and staining for EdU and DAPI. Values represent mean+s.e.m. (n=3 cultures; ***P<0.001; One-way ANOVA for comparison with the mock treatment). Day 20 forebrain-specific brain organoids were treated with PHA-690509 (1 μM) or Seliciclib (5 μM) for 3 days and hNPC proliferation was evaluated by phospho-Histone 3 (PH3) expression within the ventricular zone. Values represent mean+s.e.m. (n=8 organoids; P>0.05; One-way ANOVA for comparison with the mock treatment).

[3] = system: forebrain-specific brain organoids; assay: hNPC proliferation in forebrain organoids (phospho-Histone 3), compound alone; format: cell-based, human; details: 3 days
Method: as §1

SMILES	pIC50 [1]	rescue of ZIKV-induced reduction of hNPC proliferation [2]	effect of the treatment itself on hNPC proliferation [3]
CCCCCCCC(=O)Oc1ccc(Cl)cc1C(=O)Nc1ccc([N+](=O)[O-])cc1Cl [DK520]	> 5.52		
CC[C@H](CO)Nc1nc(NCc2ccccc2)c2ncn(C(C)C)c2n1 [Seleciclib, Seliciclib]		partially rescued ZIKV-induced reduction of hNPC proliferation	minimal effect on hNPC proliferation in brain organoids
